Experimental data from paper PMC5225203, “Multiparameter toxicity assessment of novel DOPO-derived organophosphorus flame retardants” (Archives of Toxicology, 2016).

Tests used:
A549 cells = tested on: A549 cells; set-up: method as in Kim et al. [2014]; conditions: same concentration range as used in the present study; ref Kim et al. [2014]; cited from earlier work
[1] = tested on: differentiating LUHMES cells; type: cell-based, human; conditions: day 0 to day 2
Description: LUHMES cells are conditionally immortalized human fetal ventral mesencephalic neuronal precursor cells that were obtained by clonal selection. Differentiated LUHMES cells show a clear dopaminergic phenotype, which was described in detail previously (Schildknecht et al. [2009]; Scholz et al. [2011]). Cells were propagated in advanced DMEM/F12 (Gibco/Invitrogen, Darmstadt, Germany) with 1 × N2 supplement (Invitrogen), 2 mM L-glutamine (Gibco), and 40 ng/mL recombinant bFGF (R&D Systems, Minneapolis, MN, USA). […] For quantitative evaluation of the neurite area, β-III-tubulin-stained cells were analyzed using an automated microplate-reading microscope (Array-Scan II® HCS Reader, Cellomics, Pittsburgh, PA, USA) equipped with a Hamamatsu ORCA-ER camera (1024 × 1024 resolution; run at 2 × 2 binning). […]
For quantitative assessment of total neurite mass, cells were analysed by an automated microscope system with imaging algorithms allowing a separation between cell bodies and […]
Suppl. […] Differentiating human dopaminergic neurons (LUHMES) were treate d with the different flame retardants in the concentrations as indicated for 48 h from day 0 to day 2 of differentiation. a Cell viability was determined by the resazurin redu ction and by the lactate dehydrogenase release assays. b Intracellular levels of ATP and of reduced glutathione (GSH) were measured in parallel.

Row | SMILES | cell damage in A549 cells (A549 cells) | influence on total neurite area [1] | intracellular levels of ATP and GSH [1]
1 | Brc1ccc(Oc2cc(Br)c(Br)cc2Br)c(Br)c1 [PBDE-99, reference compound] | did not produce cell damage | – | –
2 | O=P1(NCCNP2(=O)Oc3ccccc3-c3ccccc32)Oc2ccccc2-c2ccccc21 (stereo not drawn) [EDA-DOPO, 6,6′-(ethane-1,2-diylbis(azanediyl))bis(6H-dibenzo[c,e][1,2]oxaphosphinine-6-oxide)] | – | moderate, but significant influence | this effect was not reflected
